Our source for the MIC and Cytoxicity values is patent publication US8173636B2, “Hydroxylthienoquinolones and related compounds as anti-infective agents” (Achillion Pharmaceuticals, Inc., priority 2009, dated 2012).

Data set [1] has as its system fluoroquinolone-resistant S. aureus ATCC 700699. Put plainly: Minimum inhibitory concentration (MIC) assay, broth microdilution, MRSA. Type of data set: cell-based. The settings on record: Staphylococcus aureus. As to the method:
(§1) The antimicrobial activity of the compounds of the invention may be evaluated by a number of methods, including the following visual minimum inhibitory concentration (MIC) assay. This assay determines the minimum concentration of compound required to inhibit growth of a bacterial strain.
(§2) Whole-cell antibacterial activity is determined by broth microdilution using conditions recommended by the NCCLS (see National Committee for Clinical Laboratory Standards. 2001. Performance standards for antimicrobial susceptibility testing: 11th informational supplement. Vol. 21, no. 1, M100-S11. National Committee for Clinical Laboratory Standards, Wayne, Pa.). Test compounds are dissolved in DMSO and diluted 1:50 in Mueller-Hinton II broth (Becton-Dickinson) to produce a 256 μg/ml stock solution. In a 96-well microtiter plate, the compound solution is serially two-fold diluted in Mueller-Hinton II broth. After the compounds are diluted, a 50 μl aliquot of the test organism (˜1×10^6 cfu/mL) is added to each well of the microtiter plate. The final test concentrations ranges from 0.125-128 μg/mL. Inoculated plates are incubated in ambient air at 37° C. for 18 to 24 hours. The organisms selected for testing included laboratory strains S. aureus ATCC 29213 and E. coli ATCC 25922 (strains purchased from American Type Culture Collection, Manassas, Va.) m, S. aureus FQR700699, and Paeruginosa 27853. The minimum inhibitory concentration (MIC) is determined as the lowest concentration of compound that inhibited visible growth of the test organism.

The next data set concerns Hep2. Put plainly: Cell viability staining with Alamar Blue (compound cytotoxicity). In kind it is cell-based, human. As to conditions: Table II, comparison of R2 acetyl vs cyano. The protocol: To determine whether the microcidal effect observed against S. aureus and E. coli is specific to bacterial cells, compounds are screened for cell viability effects on several human cell types. Optimal cell density is first determined by plating cells in a 96-well plate standard sterile tissue culture plates in 100 μl media, 10% FBS at six cell densities from 500 cells/well to 15,000 cells/well. A cell free well containing only media is used as a control. Cells are incubated at 37° C. in a 5% CO2 incubator for 24 hours. 10% culture volume (10 ul) of Alamar Blue (Biosource, DAL1100, 100 mL) is then added. Cells are incubated at 37° C. in a 5% CO2 incubator and read in a Victor V plate reader, 544 nm excitation, 590 nm emission, at 3, 4, and 24 hours after the addition of Alamar Blue. The cell number vs. change in fluorescence is plotted to determine linearity of signal vs. cell number. The optimal density varies between 500-15,000 cells/well depending on the specific cell type. The optimal density is selected based on the highest number of cells that is still in the linear response range. Cells are plated at optimal cell density in a standard sterile tissue culture 96 well plate, and incubated at 37° C., O/N in a 5% CO2 incubator. 12 to 48 hours post-plating media is removed. The cells are washed 1 or 2 times with 1×PBS and replaced with fresh media containing the test compound in 1% DMSO. 24 to 72 hours after addition of compound, the media is removed, and the cells washed 1 to 2 times with 1×PBS. Fresh media containing 1/10 volume of Alamar Blue is then added. Plates are incubated 4 hours at 37° C. in a 5% CO2 incubator and read in a Victor V plate reader, 544 nm excitation, 590 nm emission. Compounds are diluted to 20 micromolar in 1% DMSO and media and screened in duplicate to obtain single concentration cytotoxicity data. Eight concentration points from 0.78 micromolar to 100 micromolar, run in duplicate, are used to determine cyclotoxicity CC50 values. Cells with 1% DMSO and media are used as a negative control, compounds having a known CC50 against a particular cell type are used as positive controls. The change in fluorescence vs. concentration of test compound is plotted to determine the cytotoxicity of the compound.
(In general: Alamar Blue is a resazurin reagent that responds to reducing activity.)

A further data set deals with S. aureus ATCC 29213. The data set is described as follows: Minimum inhibitory concentration (MIC) assay, broth microdilution, MSSA. The settings on record: Staphylococcus aureus, Table I. Type of data set: cell-based. The protocol: as §1, §2
On the technique in general: In broth dilution the organism is exposed to a series of concentrations in liquid medium.

[2] abbreviates: Table II, comparison of R2 acetyl vs cyano, read-out: MRSA.
[3] abbreviates: fluoroquinolone-resistant S. aureus ATCC 700699, Table I, read-out: MRSA MIC.

≈ marks a conversion by molar mass, not a printed value. Read-outs that look alike come from different tables or passages of the source. Some results are limits rather than exact numbers.

In the case of `COc1c(N2CCNCC2)c(F)cc2c(=O)c3c(n(C4CC4)c12)SC(C#N)C3=O` (centres unmarked) [Cmp 9, 9-cyclopropyl-6-fluoro-3-hydroxyl-8-methoxy-4-oxo-7-(piperazin-1-yl)-4,9-dihydrothieno[2,3-b]quinoline-2-carbonitrile], the MIC in data set [1] (setting [2]) turned out to be 0.75 µg/mL (≈ 1.81 µM). Also, in the data set on Hep2, the Cytoxicity is 9 µM.

With `COc1c(N2CC[C@@H](C(C)(C)N)C2)c(F)cc2c(=O)c3c(n(C4CC4)c12)SC(C#N)C3=O` (stereo partly drawn) [Cmp 10, (R)-7-(3-(2-aminopropan-2-yl)pyrrolidin-1-yl)-9-cyclopropyl-6-fluoro-3-hydroxyl-8-methoxy-4-oxo-4,9-dihydrothieno [2,3-b]quinoline-2-carbonitrile], the MIC in data set [1] (setting [2]) amounted to 0.09 µg/mL (≈ 0.197 µM). The compound further showed a Cytoxicity with Hep2 of 2 µM.

For `COc1c(N2CCC(c3ncn[nH]3)CC2)c(F)cc2c(=O)c3c(n(C4CC4)c12)SC(C#N)C3=O` (centres unmarked) [Cmp 48, 7-(4-(1H-1,2,4-triazol-5-yl)piperidin-1-yl)-9-cyclopropyl-6-fluoro-8-methoxy-3,4-dioxo-2,3,4,9-tetrahydrothieno [2,3-b]quinoline-2-carbonitrile], the MIC stood at 0.03 µg/mL (≈ 0.0624 µM) with S. aureus ATCC 29213 and 0.25 µg/mL (≈ 0.52 µM) in data set [1] (setting [3]).

As to `COc1c(N2CC[C@@H](C(C)(C)NCCC#N)C2)c(F)cc2c(=O)c3c(n(C4CC4)c12)SC(C#N)C3=O` (stereo partly drawn) [Cmp 49, 7-((R)-3-(2-(2-cyanoethylamino)propan-2-yl)pyrrolidin-1-yl)-9-cyclopropyl-6-fluoro-8-methoxy-3,4-dioxo-2,3,4,9-tetrahydrothieno[2,3-b]quinoline-2-carbonitrile], the values for the MIC (against S. aureus ATCC 29213; in data set [1] (setting [3])) were 0.06 µg/mL (≈ 0.118 µM) and 0.5 µg/mL (≈ 0.981 µM), respectively.

`COc1c(-c2ccnc(N3CCNCC3)c2)c(F)cc2c(=O)c3c(n(C4CC4)c12)SC(C#N)C3=O` (centres unmarked) [Cmp 50, 9-cyclopropyl-6-fluoro-8-methoxy-3,4-dioxo-7-(2-(piperazin-1-yl)pyridin-4-yl)-2,3,4,9-tetrahydrothieno [2,3-b]quinoline-2-carbonitrile]: the MIC was found to be 0.06 µg/mL (≈ 0.122 µM) against S. aureus ATCC 29213 and 1 µg/mL (≈ 2.03 µM) in data set [1] (setting [3]).

`COc1c(-c2cn[nH]c2)c(F)cc2c(=O)c3c(n(C4CC4)c12)SC(C#N)C3=O` (centres unmarked) [Cmp 51, 9-cyclopropyl-6-fluoro-8-methoxy-3,4-dioxo-7-(1H-pyrazol-4-yl)-2,3,4,9-tetrahydrothieno[2,3-b]quinoline-2-carbonitrile]: the MIC amounted to 0.03 µg/mL (≈ 0.0757 µM) in the data set on S. aureus ATCC 29213 and 0.5 µg/mL (≈ 1.26 µM) in data set [1] (setting [3]).

Take `COc1c(N2CCNC(C(N)=O)C2)c(F)cc2c(=O)c3c(n(C4CC4)c12)SC(C#N)C3=O` (centres unmarked) [Cmp 52, 4-(2-cyano-9-cyclopropyl-6-fluoro-8-methoxy-3,4-dioxo-2,3,4,9-tetrahydrothieno[2,3-b]quinolin-7-yl) piperazine-2-carboxamide]: the MIC against S. aureus ATCC 29213 is 0.25 µg/mL (≈ 0.546 µM); in data set [1] (setting [3]), 2 µg/mL (≈ 4.37 µM).

`COc1c(N2CCCC(c3ncn[nH]3)C2)c(F)cc2c(=O)c3c(n(C4CC4)c12)SC(C#N)C3=O` (centres unmarked) [Cmp 53, 7-(3-(1H-1,2,4-triazol-5-yl)piperidin-1-yl)-9-cyclopropyl-6-fluoro-8-methoxy-4-dioxo-2,3,4,9-tetrahydrothieno [2,3-b]quinoline-2-carbonitrile]: the MIC with S. aureus ATCC 29213 was found to be 0.13 µg/mL (≈ 0.271 µM); in data set [1] (setting [3]), 2 µg/mL (≈ 4.16 µM).

Take `COc1c(N2CCC[C@H](N)C2)c(F)cc2c(=O)c3c(O)c(C#N)sc3n(C3CC3)c12` [Cmp 54, (S)-7-(3-aminopiperidin-1-yl)-9-cyclopropyl-6-fluoro-3-hydroxyl-8-methoxy-4-oxo-4,9-dihydrothieno[2,3-b] quinoline-2-carbonitrile]: the values for the MIC (in the data set with S. aureus ATCC 29213; in data set [1] (setting [3])) were 0.13 µg/mL (≈ 0.303 µM) and 0.5 µg/mL (≈ 1.17 µM), respectively.

With `COc1c(N2CCN(CC#N)CC2)c(F)cc2c(=O)c3c(O)c(C#N)sc3n(C3CC3)c12` [Cmp 55, 7-(4-(cyanomethyl)piperazin-1-yl)-9-cyclopropyl-6-fluoro-3-hydroxyl-8-methoxy-4-oxo-4,9-dihydrothieno [2,3-b]quinoline-2-carbonitrile], the MIC in the data set on S. aureus ATCC 29213 stood at 0.06 µg/mL (≈ 0.132 µM); in data set [1] (setting [3]) it was 0.5 µg/mL (≈ 1.1 µM).

In the case of `COc1c(N2CCNCC2)c(F)cc2c(=O)c3c(O)c(C(C)=O)sc3n(C3CC3)c12` [Cmp 57, 2-acetyl-9-cyclopropyl-6-fluoro-3-hydroxyl-8-methoxy-7-(piperazin-1-yl)thieno[2,3-b]quinolin-4(9H)-one], the MIC is 0.25 µg/mL (≈ 0.579 µM) in the data set with S. aureus ATCC 29213, 1 µg/mL (≈ 2.32 µM) in data set [1] (setting [2]) and 1 µg/mL (≈ 2.32 µM) in data set [1] (setting [3]). The Cytoxicity with Hep2 came to 57 µM.

For `COc1c(N2CC[C@@H](C(C)(C)N)C2)c(F)cc2c(=O)c3c(O)c(C(C)=O)sc3n(C3CC3)c12` [Cmp 58, (R)-2-acetyl-7-(3-(2-aminopropan-2-yl)pyrrolidin-1-yl)-9-cyclopropyl-6-fluoro-3-hydroxyl-8-methoxythieno [2,3-b]quinolin-4(9H)-one], the MIC was 0.13 µg/mL (≈ 0.275 µM) in the data set on S. aureus ATCC 29213, 0.25 µg/mL (≈ 0.528 µM) in data set [1] (setting [2]) and 0.25 µg/mL (≈ 0.528 µM) in data set [1] (setting [3]). The Cytoxicity in the data set with Hep2 turned out to be 20 µM.

With `COc1c(N2CC[C@@H](CN)C2)c(F)cc2c(=O)c3c(O)c(C#N)sc3n(C3CC3)c12` [Cmp 59, (S)-7-(3-(aminomethyl)pyrrolidin-1-yl)-9-cyclopropyl-6-fluoro-3-hydroxyl-8-methoxy-4-oxo-dihydrothieno[2,3-b] quinoline-2-carbonitrile], the MIC in the data set with S. aureus ATCC 29213 is 0.02 µg/mL (≈ 0.0467 µM); in data set [1] (setting [2]), 0.03 µg/mL (≈ 0.07 µM); in data set [1] (setting [3]), less than 0.03 µg/mL. The compound further displayed a Cytoxicity with Hep2 of 0.06 µM.

For `COc1c(N2CC[C@@H](CN)C2)c(F)cc2c(=O)c3c(O)c(C(C)=O)sc3n(C3CC3)c12` [Cmp 60, (S)-2-acetyl-7-(3-(aminomethyl)pyrrolidin-1-yl)-9-cyclopropyl-6-fluoro-3-hydroxyl-8-methoxythieno [2,3-b]quinolin-4(9H)-one], the MIC (against S. aureus ATCC 29213; in data set [1] (setting [2]); in data set [1] (setting [3])) was 0.06 µg/mL (≈ 0.135 µM) each time. The Cytoxicity with Hep2 was found to be 11 µM.

For `COc1c(N2CC[C@@H](CN)C2)c(F)cc2c(=O)c3c(O)c(C(N)=O)sc3n(C3CC3)c12` [Cmp 61, (S)-7-(3-(aminomethyl)pyrrolidin-1-yl)-9-cyclopropyl-6-fluoro-3-hydroxyl-8-methoxy-4-oxo-4,9-dihydrothieno [2,3-b]quinoline-2-carboxamide], the values for the MIC (in the data set with S. aureus ATCC 29213; in data set [1] (setting [3])) were 0.13 µg/mL (≈ 0.291 µM) and 0.5 µg/mL (≈ 1.12 µM), respectively.

Take `CCC(=O)c1sc2c(c1O)c(=O)c1cc(F)c(N3CC[C@@H](C(C)(C)N)C3)c(OC)c1n2C1CC1` [Cmp 62, (R)-7-(3-(2-aminopropan-2-yl)pyrrolidin-1-yl)-9-cyclopropyl-6-fluoro-3-hydroxyl-8-methoxy-2-propionylthieno [2,3-b]quinolin-4(9H)-one]: the figures for the MIC (in the data set with S. aureus ATCC 29213; in data set [1] (setting [3])) were 0.5 µg/mL (≈ 1.03 µM) and 1 µg/mL (≈ 2.05 µM), respectively.

With `COc1c(N2CCCC(CN)C2)c(F)cc2c(=O)c3c(O)c(C(N)=O)sc3n(C3CC3)c12` (centres unmarked) [Cmp 65, 7-(3-(aminomethyl)piperidin-1-yl)-9-cyclopropyl-6-fluoro-3-hydroxyl-8-methoxy-4-oxo-4,9-dihydrothieno [2,3-b]quinoline-2-carboxamide], the MIC was 0.5 µg/mL (≈ 1.09 µM) against S. aureus ATCC 29213 and 2 µg/mL (≈ 4.34 µM) in data set [1] (setting [3]).

`COc1c(N2CCCC(=C(F)CN)C2)c(F)cc2c(=O)c3c(O)c(C(C)=O)sc3n(C3CC3)c12` [Cmp 66, 2-acetyl-7-(3-(2-amino-1-fluoroethylidene)piperidin-1-yl)-9-cycloprop-6-fluoro-3-hydroxyl-8-methoxythieno[2,3-b] quinolin-4(9H)-one]: the results for the MIC (against S. aureus ATCC 29213; in data set [1] (setting [3])) were 0.25 µg/mL (≈ 0.511 µM) and 0.5 µg/mL (≈ 1.02 µM), respectively.
